# Source: patent US20240426824A1, “METHODS RELATING TO TREATMENT OF ACUTE MYELOID LEUKEMIA” (BOARD OF REGENTS, THE UNIVERSITY OF TEXAS SYSTEM, priority 2021, published 2024)
# Columns and labels:
# MV4-11 VTX-sen cell line = assay: Immunoblot protein expression after VTX treatment, MV4-11 cells; assay type: cell-based; settings: 24 hours post treatment with VTX, identical experimental conditions
# Method: Protein expression validation in AML cell lines. MOLM-13 parental and VTX-resistant cells were the kind gift of Dr. Marina Konopleva (MD Anderson Cancer Center; Houston, TX, USA). OCI-AML-3, KG-1, and MV4-11 cells were obtained from the Leukemia Sample Bank (LSB) at MD Anderson. For protein expression comparison in cell lines, immunoblot analysis was performed. Cells were boiled and sonicated in lysis buffer and protein (1.5×10^5 cell equivalents) was subjected to electrophoresis using SDS/PAGE. Immunoblot analysis was performed with antibodies against CBL (BD Transduction Lab), PRKCB.pS660 (Cell Signaling, Beverly, MA), SYK (Santa Cruz, Dallas, TX), PKM2 (Cell Signaling), STAT3.pS727 (Cell Signaling), Beta-Actin (Sigma Aldrich, St. Louis, MO), GADPH (Ambion, Austin, TX) and Alpha-Tubulin (Sigma Aldrich). Signals were detected by using the ProteinSimple FluorChem imaging system and quantified by AlphaView software. Beta-Actin, GAPDH, and Alpha-Tubulin were used as loading controls. Densitometry was calculated as protein expression/expression of housekeeping gene, relative to the control.
# The above findings were validated by looking for similar responses in cell lines in vitro in response to VTX exposure. […]
# [1] = tested on: adult patients with newly diagnosed AML; assay: Clinical outcome of VTX-containing induction chemotherapy, clusters by 36-protein classifier (Example 2); assay type: in vivo, human
# From the text: Sample Collection and Processing. Peripheral blood (PB) and bone marrow (BM) samples were collected from 818 adult patients with newly diagnosed AML, of which 143 received VTX-containing induction chemotherapy, evaluated at the University of Texas MD Anderson Cancer Center (MDACC) between January 2012 and July 2020. Informed consent was obtained in accordance with the Declaration of Helsinki. Samples were processed and analyzed under an Investigational Review Board (IRB) approved laboratory protocol (Lab 06-0565).
# Following data normalization, a cohort of 143 patients that received VTX-containing induction chemotherapy was identified for separate analysis for the purposes of this manuscript. Survival curves were generated by Kaplan-Meier method and survival data was analyzed by multivariate cox regression model. [Refs. 12, 13] Protein expression signatures were identified by hierarchical Progeny clustering. [Ref. 14] Correlations between clustered protein signatures and clinical features were assessed using Fisher's exact test for categorical variables and the Kruskal-Wallis test for continuous variables. Multivariate analysis for survival outcomes OS and RD was performed by Cox regression model. Median protein expression within clusters was compared to median expression in the normal controls to identify significant expression trends with the Wilcoxon test. Protein networks were built using Cytoscape (version 3.9.1) combining literature-based protein interactions queried from the STRING database and proteomic-based interactions inferred from the RPPA data derived from Pearson correlation. [Ref. 11] Predictive classifier models were assembled in Python using the random forest machine learning technique. All bioinformatics and analysis were performed in Rstudio (version 1.3.1093) with R (version 4.1.2).
# A cohort of 143 patients that received VTX as a component of induction chemotherapy was identified, of which 27 received VTX combined with high-dose cytarabine (Ara-C), 29 combined with low- or standard-dose Ara-C, […], 6 with high-dose Ara-C and a hypomethylating agent, and 12 combined with targeted therapy (5 FLT3 inhibitors, 5 IDH inhibitors, 2 TP53 inhibitors). In the VTX cohort, 5 patients were not treated at MDACC leaving 138 patients evaluable for outcome and further analysis. Median age at diagnosis was 68 years (range 18-90 years) with median follow-up 58 weeks (range 2-396 weeks). […] Patient demographic, diagnostic labs, (data not shown) treatment, and outcome data was compiled to be analyzed against protein expression data.
# Next, recurring patterns of expression were identified across the 36 proteins correlated to OS (FIGS. 3A and 3B) by applying the Progeny clustering algorithm utilizing k-means, and unbiased hierarchical clustering [Ref. 14] identifying three distinct protein expression patterns Cluster 1 (C1; n=41), Cluster 2 (C2; n=63), and Cluster 3 (C3; n=39). Protein expression was somewhat heterogeneous between clusters for several proteins, namely AR, STAT3.pY705, and RAF1.pS338. Expression of CDKN1B and CDKN1B.pS10 were nearly universally high in AML samples relative to the CD34+ controls, albeit phosphorylated CDKN1B was relatively higher in C1 members. While universally low across AMVL samples, ASH2L and MSH6 were relatively lower in the C1 signature as were PRMT1, MAPK14.pT180, HSF1.pS326, EIF4EBP1.pS65, EIF2AK2, and WDR5. The C3 signature was marked by relatively high expression of PrMT1, KMT2D, STAT3.pS727, EP300, and TSC2 and relatively low expression in AKR1C3, YWHAE, TNK1, COPS5, ATF3, SGK1, VTCN1, TNFRSF4, and PEA15.
# adults with AML = assay: Clinical outcome of VTX treated patients, clusters by 44-protein classifier (Example 1); assay type: in vivo, human
# Method: Reverse Phase Protein Array (RPPA) as described by Tibes et al. 2006 and Kornblau et al. 2011 was performed on leukemia blast enriched fractions prepared from diagnostic samples of 818 adults with AML, of which 143 were treated with venetoclax (VTX) including 33 in combination with high dose Ara-C, 5 with standard dose Ara-C, 50 with hypomethylating agents (HMA), and 13 with HMA and targeted therapy (either CPX-351 liposome, a dual-drug liposomal encapsulation of cytarabine and daunorubicin, or anthracycline). Protein expression levels were evaluated using 390 validated antibodies against total and post translationally modified (phosphorylated, methylated, cleaved) as described by Hoff et al. 2019. proteins and were analyzed in the context of clinical data compiled by retrospective chart review. Pearson correlation was used to identify significant protein-protein correlations. Survival curves were generated by the Kaplan-Meier method and survival data was analyzed by multivariate cox regression model. Protein expression signatures were identified by hierarchical clustering and predictive models of protein classifiers were determined by classification and regression trees (CART) analysis.
# We queried the 390 proteins (Table 1) assayed in the 143 VTX treated patients to identify proteins individually prognostic for overall survival (OS) or remission duration (REMDUR) and identified 27 proteins correlated with OS (p<0.01) and 44 proteins correlated with REMDUR (p<0.01). Neither MCL1, BCLXL nor BCL2 expression at diagnosis were prognostic of overall survival (OS) or remission duration (REMDUR).
compound,measurement,setting,value
"CC1(C)CCC(CN2CCN(c3ccc(C(=O)NS(=O)(=O)c4ccc(NCC5CCOCC5)c([N+](=O)[O-])c4)c(Oc4cnc5[nH]ccc5c4)c3)CC2)=C(c2ccc(Cl)cc2)C1 [VTX, venetoclax]",reduction in the expression of PKM2,MV4-11 VTX-sen cell line,> 50%
same,median OS,[1]; C1,182.7 weeks
same,relapse rate,"[1]; C1, patients that achieved remission (n=32)",21.9%
same,median OS,[1]; C2,55.1 weeks
same,median remission duration,[1]; C2,129 weeks
same,relapse rate,"[1]; C2, patients that achieved remission (n=40)",42.5%
same,median OS,[1]; C3,35.7 weeks
same,median remission duration,[1]; C3,39 weeks
same,relapse rate,"[1]; C3, patients that achieved remission (n=18)",66.7%
same,Remission rate,[1]; Cluster 1 (C1),82%
same,Remission rate,[1]; Cluster 2 (C2),70%
same,Remission rate,[1]; Cluster 3 (C3),50%
same,Remission (CR/CRi) achieved,"[1]; all evaluable patients (138), n=90",65%
same,"relapsed, of patients in remission","[1]; of 90 patients in remission, n=36",40%
same,Remission rate,adults with AML; cluster 1,61%
same,relapse risk (RR) at 1-yr,adults with AML; cluster 1,45%
same,estimated 3-yr overall survival,adults with AML; cluster 1 (n=102),27%
same,Remission rate,adults with AML; cluster 2,77%
same,relapse risk (RR) at 1-yr,adults with AML; cluster 2,18%
same,estimated 3-yr overall survival,adults with AML; cluster 2 (n=41),66%
